Measured values: patent publication US20090004677A1, “QUANTITATIVE DETERMINATION OF BCL10” (The Board of Trustees of the University of Illinois, priority 2007, published 2009)

Tests used:
Bcl10 = assay: solid-phase sandwich ELISA for Bcl10 in NCM460 cells; type: cell-based, human
Experimental: NCM460 and primary colon cells were treated with different concentrations (1, 10 and 20 ng/ml) of lipopolysaccharide (LPS; from E. coli 026:B6, #L2654, Sigma-Aldrich, St. Louis, Mo.) for durations of 2, 4, 6, or 24 hours. The endotoxin level of the LPS from E. coli was reported as 500,000 EU (Endotoxin Units)/mg LPS. The secretion of IL-8 and the cellular content of Bcl10 and phospho-IκBα proteins in response to these treatments were assayed. […] A second LPS (from Salmonella enterica serotype Minnesota; #L4641, Sigma-Aldrich, St. Louis, Mo.) was also used for some of the experiments. The endotoxin level of the batch of Salmonella enterica was reported as 800,000 EU/mg LPS.
The expression of Bcl10 in NCM460 cells or primary colon cells was determined by a solid-phase sandwich ELISA designed to quantify cellular Bcl10. Control or treated cells were lysed in RIPA buffer (50 mM Tris-HCl containing 0.15 M NaCl, 1% Nonidet P40, 0.5% deoxycholic acid and 0.1% SDS, pH 7.4) and the cell extracts were stored at −80° C. until assayed. Bcl10 molecules in the samples or standards were captured in the wells of a microtiter plate pre-coated with rabbit polyclonal antibody to Bcl10 (QED Bioscience Inc., San Diego, Calif.). Immobilized Bcl10 molecules were detected by a mouse monoclonal antibody to Bcl10 (Novus Biologicals, Littleton, Colo.) and goat anti-mouse IgG-horseradish peroxidase (HRP) complex (Santa Cruz Biotechnology, Santa Cruz, Calif.). The peroxidase enzyme activity bound to Bcl10 molecules was determined by chromogenic reaction with hydrogen peroxide/tetramethylbenzidine. Color development due to enzymatic activity was stopped by 2N sulfuric acid, and intensity of the color was measured at 450 nm in ELISA Plate reader (SLT, Spectra). Bcl10 concentrations of the samples were extrapolated from a standard curve derived using known concentrations of recombinant Bcl10 (Calbiochem, EMD Bioscience, San Diego, Carlsbad, Calif.). Sample values were normalized with the total cell protein concentrations determined by BCA™ Protein assay kit (Pierce, Rockford, Ill.). […]

IL-8 = assay: ELISA for IL-8 in spent media of NCM460 cells; type: cell-based, human
Experimental: NCM460 and primary colon cells were treated with different concentrations (1, 10 and 20 ng/ml) of lipopolysaccharide (LPS; from E. coli 026:B6, #L2654, Sigma-Aldrich, St. Louis, Mo.) for durations of 2, 4, 6, or 24 hours. The endotoxin level of the LPS from E. coli was reported as 500,000 EU (Endotoxin Units)/mg LPS. The secretion of IL-8 and the cellular content of Bcl10 and phospho-IκBα proteins in response to these treatments were assayed. In the majority of experiments, LPS 10 ng/ml for 6 hours was selected as the optimal dose and duration. A second LPS (from Salmonella enterica serotype Minnesota; #L4641, Sigma-Aldrich, St. Louis, Mo.) was also used for some of the experiments. The endotoxin level of the batch of Salmonella enterica was reported as 800,000 EU/mg LPS.
The secretion of IL-8 in the spent media of control and treated NCM460 cells and primary colon cells was measured by the DuoSet Enzyme-linked Immunosorbent Assay (ELISA) kit for human IL-8 (R&D Systems Inc, Minneapolis, Minn.), according to the manufacturer's instructions. The IL-8 in the spent media was captured into the wells of a microtiter plate pre-coated with specific anti-IL-8 monoclonal antibody. Immobilized IL-8 was then detected by biotin-conjugated secondary IL-8 antibody and Streptavidin-HRP. Hydrogen peroxide/tetramethylbenzidine chromogenic substrate was used to develop the color and the intensity of color was measured at 450 nm with a reference filter of 570 nm in an ELISA plate reader (SLT, Spectra). The IL-8 concentrations were extrapolated from a standard curve plotted using known concentrations of IL-8. The sample values were normalized with total protein content (BCA™ Protein assay kit; Pierce, Rockford, Ill.) and expressed as pg or ng/mg cellular protein.

[1] = NCM460 cells, 50 μM inhibitor 2 hours prior to 6 hours LPS 10 ng/ml
[2] = human IEC, LPS 10 ng/ml for 2-6 hours

O=C(Nc1nc2ccccc2n1CCN1CCOCC1)c1cccc([N+](=O)[O-])c1 [IRAK 1/4 inhibitor, N-(2-morpholinylethyl)-2-(3-nitrobenzoylamido)-benzimidazole]
Bcl10 after LPS with IRAK 1/4 inhibitor (Bcl10; [1]): 2.36 ± 0.08 ng/mL
decline of the LPS-induced increase in Bcl10 (Bcl10; [1]): 73%
effect on the LPS-induced increase in Bcl10 (result in words) (Bcl10; [2]): eliminated
IL-8 after LPS with IRAK 1/4 inhibitor (IL-8; [1]): 1.14 ± 0.08 ng/mL
decline of the LPS-induced increase in IL-8 response (IL-8; [1]): 60%
effect on the LPS-induced increase in IL-8 (result in words) (IL-8; [2]): eliminated
